Values of other authors in patent publication US20120302647A1, “SYNTHESIS OF MAGNOLOL AND ITS ANALOGUE COMPOUNDS” (INDIAN INSTITUTE OF CHEMICAL TECHNOLOGY, priority 2010, published 2012).

What was measured:
[1] = times greater than α-tocopherol
[2] = system: cortical neuron-astrocyte mixed cultures; conditions: chemical hypoxia by KCN

## C=CCc1ccc(O)c(-c2cc(CC=C)ccc2O)c1 [magnolol, 5,5′-diallylbiphenyl-2,2′-diol]
[1]
  antioxidant activity relative to α-tocopherol: 1000 times
myocardium
  protection of the myocardium against infarction and reperfusion injury: protecting the myocardium against infarction and reperfusion injury
[2]
  protection of neurons against chemical hypoxia: protects neurons against chemical hypoxia by KCN
